Key:
Test in all cases: relative viability (nuclei count vs DMSO), 5 days (fraction); higher = more cells survive
[1] = compound: COc1cc2nc(N3CCCN(C)CC3)nc(NC3CCN(Cc4ccccc4)CC3)c2cc1OC + Nc1nc2[nH]cc(CCc3ccc(C(=O)N[C@@H](CCC(=O)O)C(=O)O)cc3)c2c(=O)[nH]1 [Pemetrexed] (partner 0.2 µM)
Summary of the method: (§1)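 Relative viability equals treated-well nuclei counts divided by vehicle-well nuclei counts. Counts came from 4× images of lung cancer cell lines grown in 1536-well plates for 5 days after pin-tool dosing on the day after seeding. Dosing used one drug alone or a fixed anchor-drug dose plus five library-drug doses (not always all listed) in √10 steps, and values are medians of duplicate plates.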

AZD6482 + Lapatinib = compound: Cc1cc([C@@H](C)Nc2ccccc2C(=O)O)c2nc(N3CCOCC3)cc(=O)n2c1 [AZD6482] + CS(=O)(=O)CCNCc1ccc(-c2ccc3ncnc(Nc4ccc(OCc5cccc(F)c5)c(Cl)c4)c3c2)o1 [Lapatinib] (partner 2 µM)
Summary of the method: as §1

[2] = compound: COc1cc2nc(N3CCCN(C)CC3)nc(NC3CCN(Cc4ccccc4)CC3)c2cc1OC + Cc1nc(Nc2ncc(C(=O)Nc3c(C)cccc3Cl)s2)cc(N2CCN(CCO)CC2)n1 [Dasatinib] (partner 0.075 µM)
Summary of the method: as §1

[3] = compound: COc1cc2nc(N3CCCN(C)CC3)nc(NC3CCN(Cc4ccccc4)CC3)c2cc1OC + C[C@]1(O)C[C@@H](c2nc(-c3ccc4ccc(-c5ccccc5)nc4c3)c3c(N)nccn32)C1 [Linsitinib] (partner 1 µM)
Summary of the method: as §1

| Cell Line | relative viability ([1]; first compound 0.2 µM) | relative viability ([1]; first compound 0.6325 µM) | relative viability ([1]; first compound 2 µM) | relative viability ([1]; first compound 6.325 µM) | relative viability (AZD6482 + Lapatinib; first compound 0.08 µM) | relative viability (AZD6482 + Lapatinib; first compound 0.253 µM) | relative viability (AZD6482 + Lapatinib; first compound 0.8 µM) | relative viability (AZD6482 + Lapatinib; first compound 2.53 µM) | relative viability (AZD6482 + Lapatinib; first compound 8 µM) | relative viability ([2]; first compound 0.2 µM) | relative viability ([2]; first compound 0.6325 µM) | relative viability ([2]; first compound 2 µM) | relative viability ([2]; first compound 6.325 µM) | relative viability ([3]; first compound 0.2 µM) | relative viability ([3]; first compound 0.6325 µM) | relative viability ([3]; first compound 2 µM) | relative viability ([3]; first compound 6.325 µM) |
| --- | --- | --- | --- | --- | --- | --- | --- | --- | --- | --- | --- | --- | --- | --- | --- | --- | --- |
| NCI-H1666 | 0.885 | 0.785 | 0.766 | 0.872 | 0.283 | 0.616 | 0.556 | 0.517 | 0.417 | 0.819 | 0.847 | 0.788 | 0.718 | 0.866 | 0.919 | 0.783 | 0.675 |
| NCI-H1651 | 0.623 | 0.598 | 0.597 | 0.624 | 0.776 | 0.608 | 0.77 | 0.563 | 0.522 | 0.383 | 0.523 | 0.47 | 0.413 | 1.02 | 0.903 | 1.09 | 0.893 |
| NCI-H1755 | 0.459 | 0.415 | 0.414 | 0.368 | 0.955 | 0.969 | 1.03 | 0.704 | 0.749 | 0.436 | 0.395 | 0.416 | 0.423 | 0.974 | 0.982 | 0.946 | 0.932 |
| NCI-H661 | 0.882 | 0.894 | 0.904 | 0.923 | 0.531 | 0.455 | 0.393 |  | 0.369 | 0.957 | 0.955 | 0.966 | 0.83 | 0.553 | 0.56 | 0.779 | 0.634 |
| HARA | 0.258 | 0.227 | 0.227 | 0.269 | 0.707 | 0.503 | 0.919 |  | 0.483 | 0.275 | 0.271 | 0.255 | 0.266 | 0.798 | 0.889 | 1 | 0.948 |
| NCI-H596 | 0.515 | 0.534 | 0.503 | 0.468 | 0.722 | 0.953 | 1.06 | 0.873 | 0.853 | 0.659 | 0.652 | 0.638 | 0.654 | 1.12 | 1.02 | 1.17 | 0.992 |
| NCI-H1563 | 0.646 | 0.9 | 0.879 | 0.896 | 0.902 | 0.842 | 0.876 | 0.674 | 0.778 | 0.469 | 0.467 | 0.441 | 0.421 | 1.29 | 1.19 | 1.19 | 1.16 |
| NCI-H23 | 0.66 | 0.695 | 0.918 | 0.703 | 1.03 | 0.848 | 1.32 | 0.644 | 0.855 | 0.786 | 0.628 | 0.859 | 0.876 | 0.562 | 0.733 | 0.833 | 0.53 |
| LCLC-97TM1 | 0.194 | 0.156 | 0.189 | 0.199 | 1.04 | 1.01 | 1.28 | 0.271 | 0.462 | 0.857 | 0.701 | 0.877 | 0.915 | 0.176 |  | 0.159 | 0.195 |
| EPLC-272H | 0.335 | 0.403 | 0.397 | 0.365 | 0.812 |  | 1.01 | 0.709 | 0.673 | 0.384 | 0.411 | 0.453 | 0.37 | 1.25 | 1.22 | 1.02 | 1.1 |
| NCI-H1915 | 0.48 | 0.442 | 0.503 | 0.463 | 0.933 | 0.813 | 1.05 | 0.844 | 1.01 | 0.35 | 0.355 | 0.338 | 0.349 | 1.05 | 1.08 | 1.12 | 1.08 |
| NCI-H2405 | 1.02 | 1.12 | 1.11 | 1.05 | 0.69 |  | 1.12 | 0.627 | 0.483 | 0.213 | 0.214 | 0.2 | 0.202 | 0.934 | 0.975 | 0.979 | 0.809 |
| NCI-H322M | 0.606 | 0.623 | 0.581 | 0.584 | 0.53 | 0.441 | 0.561 | 0.357 | 0.495 | 0.258 | 0.281 | 0.274 | 0.26 | 0.826 | 0.887 | 0.939 | 0.901 |
| NCI-H1395 | 0.892 | 0.84 | 0.824 | 0.635 | 0.787 | 0.741 | 0.836 | 0.511 | 0.562 | 0.459 | 0.425 | 0.384 | 0.357 | 1.16 | 1.13 | 0.912 | 1.12 |
| NCI-H358 | 0.174 | 0.168 | 0.17 | 0.173 | 0.443 | 0.417 | 0.386 | 0.258 | 0.365 | 0.163 | 0.205 | 0.146 | 0.171 | 0.837 | 0.66 | 0.741 | 0.52 |
| NCI-H838 | 0.259 | 0.263 | 0.293 | 0.243 | 0.776 | 0.783 | 0.894 | 0.482 | 0.6 | 0.316 | 0.319 | 0.33 | 0.237 | 1.07 | 0.936 | 1.11 | 0.85 |
| CAL-12T | 1.23 | 1.01 | 1.19 | 1.04 | 0.601 |  | 0.529 | 0.272 | 0.578 | 0.37 | 0.325 | 0.54 | 0.294 | 0.745 | 0.829 | 0.944 | 0.726 |

Source: the supplement of paper PMC10307832
